Assay results as given in PubChem BioAssay (NCI).
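96-well plates; 48 h exposure; 5 concentrations. Endpoints by linear interpolation between flanking doses. Not reached: highest tested concentration assigned. TGI: concentration producing complete growth inhibition.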

Columns and labels:
Assay in all cases: NCI anticancer screen, dose series, 48 h
[1] = system: SR leukemia
[2] = system: COLO 205 colon
[3] = system: RPMI-8226 leukemia
[4] = system: HT29 colon
[5] = system: SK-MEL-28 melanoma
[6] = system: SK-MEL-2 melanoma
[7] = system: M14 melanoma
[8] = system: NCI-H522 lung
[9] = system: OVCAR-8 ovarian
[10] = system: TK-10 renal
[11] = system: RXF 393 renal
[12] = system: IGROV1 ovarian
[13] = system: OVCAR-5 ovarian
[14] = system: K-562 leukemia
[15] = system: CCRF-CEM leukemia
[16] = system: M19-MEL melanoma
[17] = system: NCI-H460 lung
[18] = system: UACC-62 melanoma
[19] = system: SK-OV-3 ovarian
[20] = system: OVCAR-4 ovarian
[21] = system: NCI-H226 lung
[22] = system: OVCAR-3 ovarian
[23] = system: SF-268 CNS
[24] = system: SNB-78 CNS
[25] = system: HCT-15 colon
[26] = system: HOP-92 NSCLC
[27] = system: UO-31 renal
[28] = system: SN12C renal
[29] = system: SW-620 colon
[30] = system: SF-295 CNS
[31] = system: SNB-75 CNS
[32] = system: KM20L2 colon
[33] = system: LXFL 529 NSCLC
[34] = system: HOP-62 NSCLC
[35] = system: DMS 273 small cell lung
[36] = system: KM12 colon
[37] = system: SF-539 CNS
[38] = system: A498 renal
[39] = system: LOX IMVI melanoma
[40] = system: HCT-116 colon
[41] = system: CAKI-1 renal
[42] = system: ACHN renal
[43] = system: EKVX NSCLC
[44] = system: HL-60(TB) leukemia
[45] = system: A549 NSCLC
[46] = system: NCI-H23 lung
[47] = system: 786-0 renal
[48] = system: MOLT-4 leukemia
[49] = system: U251 CNS
[50] = system: SNB-19 CNS
[51] = system: MALME-3M melanoma
[52] = system: HS 578T breast
[53] = system: MDA-MB-435
[54] = system: HCC-2998 colon
[55] = system: T-47D breast
[56] = system: DU-145 prostate
[57] = system: NCI/ADR-RES ovarian
[58] = system: MCF7 breast
[59] = system: PC-3 prostate
[60] = system: MDA-N
[61] = system: MDA-MB-231 breast
[62] = system: SK-MEL-5 melanoma
[63] = system: BT-549 breast
[64] = system: UACC-257 melanoma

CCCN(CCC)C(=O)c1c([N+](=O)[O-])cc(C(F)(F)F)cc1[N+](=O)[O-]
TGI [1]: > 100 µM | TGI [2]: 39.1 µM | TGI [3]: > 100 µM | TGI [4]: > 100 µM | TGI [5]: > 100 µM | TGI [6]: > 100 µM | TGI [7]: > 100 µM | TGI [8]: 60.5 µM | TGI [9]: > 100 µM | TGI [10]: > 100 µM | TGI [11]: 79.7 µM | TGI [12]: > 100 µM | TGI [13]: > 100 µM | TGI [14]: > 100 µM | TGI [15]: > 100 µM | TGI [16]: 27 µM | TGI [17]: > 100 µM | TGI [18]: 50.1 µM | TGI [19]: > 100 µM | TGI [20]: 32.9 µM | TGI [21]: 65.3 µM | TGI [22]: 34.8 µM | TGI [23]: > 100 µM | TGI [24]: > 100 µM | TGI [25]: > 100 µM | TGI [26]: 93.3 µM | TGI [27]: > 100 µM | TGI [28]: > 100 µM | TGI [29]: 84.3 µM | TGI [30]: > 100 µM | TGI [31]: > 100 µM | TGI [32]: 53.7 µM | TGI [33]: > 100 µM | TGI [34]: > 100 µM | TGI [35]: > 100 µM | TGI [36]: > 100 µM | TGI [37]: > 100 µM | TGI [38]: > 100 µM | TGI [39]: > 100 µM | TGI [40]: 87.4 µM | TGI [41]: > 100 µM | TGI [42]: > 100 µM | TGI [43]: > 100 µM | TGI [44]: 56.3 µM | TGI [45]: > 100 µM | TGI [46]: 73.3 µM | TGI [47]: > 100 µM | TGI [48]: > 100 µM | TGI [49]: > 100 µM | TGI [50]: > 100 µM

CC(=O)[C@@H](C)C(=O)N1C(=O)OC[C@@]12[C@@H]1CC[C@@H](C1)C2(C)C
TGI [1]: > 100 µM | TGI [51]: > 100 µM | TGI [2]: > 100 µM | TGI [3]: > 100 µM | TGI [52]: > 100 µM | TGI [53]: > 100 µM | TGI [4]: > 100 µM | TGI [5]: > 100 µM | TGI [6]: > 100 µM | TGI [54]: > 100 µM | TGI [7]: > 100 µM | TGI [8]: > 100 µM | TGI [55]: > 100 µM | TGI [56]: > 100 µM | TGI [57]: > 100 µM | TGI [58]: > 100 µM | TGI [9]: > 100 µM | TGI [10]: > 100 µM | TGI [11]: > 100 µM | TGI [12]: > 100 µM | TGI [13]: > 100 µM | TGI [14]: > 100 µM | TGI [15]: > 100 µM | TGI [17]: > 100 µM | TGI [18]: > 100 µM | TGI [19]: > 100 µM | TGI [20]: > 100 µM | TGI [21]: > 100 µM | TGI [59]: > 100 µM | TGI [60]: > 100 µM | TGI [61]: > 100 µM | TGI [25]: > 100 µM | TGI [26]: > 100 µM | TGI [27]: > 100 µM | TGI [28]: > 100 µM | TGI [29]: > 100 µM | TGI [30]: > 100 µM | TGI [31]: > 100 µM | TGI [34]: > 100 µM | TGI [36]: > 100 µM | TGI [37]: > 100 µM | TGI [38]: > 100 µM | TGI [39]: > 100 µM | TGI [40]: > 100 µM | TGI [41]: > 100 µM | TGI [42]: > 100 µM | TGI [43]: > 100 µM | TGI [44]: > 100 µM | TGI [45]: > 100 µM | TGI [46]: > 100 µM | TGI [47]: > 100 µM | TGI [62]: > 100 µM | TGI [49]: > 100 µM | TGI [63]: > 100 µM | TGI [50]: > 100 µM | TGI [64]: > 100 µM
